This note sets out measurements from ChEMBL document CHEMBL3407416, “Discovery of (R)-8-(1-(3,5-difluorophenylamino)ethyl)-N,N-dimethyl-2-morpholino-4-oxo-4H-chromene-6-carboxamide (AZD8186): a potent and selective inhibitor of PI3Kβ and PI3Kδ for the treatment of PTEN-deficient cancers” (J Med Chem, 2015).

In data set [1] the target is T1, Phosphatidylinositol 4,5-bisphosphate 3-kinase catalytic subunit alpha isoform (Homo sapiens, UniProt P42336). The experiment in a line: Inhibition of human recombinant PI3Kalpha using PIP2 by Kinase-Glo Plus assay. On the technique in general: Kinase-Glo reads ATP consumption through a luciferase reaction.
Target sequence in this assay (P42336 whole entry, canonical isoform): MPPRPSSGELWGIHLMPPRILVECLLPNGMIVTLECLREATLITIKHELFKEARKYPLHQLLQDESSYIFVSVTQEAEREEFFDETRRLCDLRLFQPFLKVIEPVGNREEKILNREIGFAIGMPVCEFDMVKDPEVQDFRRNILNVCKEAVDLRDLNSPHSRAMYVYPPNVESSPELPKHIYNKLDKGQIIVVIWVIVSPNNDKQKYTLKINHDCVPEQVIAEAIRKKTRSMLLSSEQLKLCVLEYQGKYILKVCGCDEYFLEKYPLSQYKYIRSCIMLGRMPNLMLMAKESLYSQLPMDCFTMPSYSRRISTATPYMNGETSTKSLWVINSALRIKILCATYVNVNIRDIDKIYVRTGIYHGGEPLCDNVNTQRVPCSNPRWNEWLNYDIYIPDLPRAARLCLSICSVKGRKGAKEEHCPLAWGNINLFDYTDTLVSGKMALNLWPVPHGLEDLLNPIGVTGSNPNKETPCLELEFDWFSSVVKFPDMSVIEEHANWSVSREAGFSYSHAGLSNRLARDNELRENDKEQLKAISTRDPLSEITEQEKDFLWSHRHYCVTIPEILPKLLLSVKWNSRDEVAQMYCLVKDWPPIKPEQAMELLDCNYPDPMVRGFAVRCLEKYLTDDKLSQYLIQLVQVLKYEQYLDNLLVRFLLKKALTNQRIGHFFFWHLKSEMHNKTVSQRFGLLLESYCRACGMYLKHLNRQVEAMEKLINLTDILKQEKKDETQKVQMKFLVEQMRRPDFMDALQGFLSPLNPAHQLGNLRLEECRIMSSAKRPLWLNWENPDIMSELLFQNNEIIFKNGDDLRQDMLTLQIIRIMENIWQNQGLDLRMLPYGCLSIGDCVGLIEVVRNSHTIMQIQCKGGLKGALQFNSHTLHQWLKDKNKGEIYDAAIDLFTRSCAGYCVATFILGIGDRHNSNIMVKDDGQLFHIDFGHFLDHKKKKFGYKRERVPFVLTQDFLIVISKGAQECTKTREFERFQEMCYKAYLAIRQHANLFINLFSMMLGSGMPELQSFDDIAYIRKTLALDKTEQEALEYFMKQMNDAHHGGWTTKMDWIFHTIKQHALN
In data set [2] the target is T2, Phosphatidylinositol 4,5-bisphosphate 3-kinase catalytic subunit beta isoform (Homo sapiens, UniProt P42338). Kind of data set: Inhibition of human recombinant PI3Kbeta using PIP2 by Kinase-Glo Plus assay.
Data set [3] has as its target Phosphatidylinositol 4,5-bisphosphate 3-kinase catalytic subunit gamma isoform (Homo sapiens, UniProt P48736). Kind of data set: Inhibition of human recombinant PI3Kgamma using PIP2 by Kinase-Glo Plus assay.
Data set [4] concerns the target T3, Phosphatidylinositol 4,5-bisphosphate 3-kinase catalytic subunit delta isoform (Homo sapiens, UniProt O00329).
T3 sequence (O00329 whole entry): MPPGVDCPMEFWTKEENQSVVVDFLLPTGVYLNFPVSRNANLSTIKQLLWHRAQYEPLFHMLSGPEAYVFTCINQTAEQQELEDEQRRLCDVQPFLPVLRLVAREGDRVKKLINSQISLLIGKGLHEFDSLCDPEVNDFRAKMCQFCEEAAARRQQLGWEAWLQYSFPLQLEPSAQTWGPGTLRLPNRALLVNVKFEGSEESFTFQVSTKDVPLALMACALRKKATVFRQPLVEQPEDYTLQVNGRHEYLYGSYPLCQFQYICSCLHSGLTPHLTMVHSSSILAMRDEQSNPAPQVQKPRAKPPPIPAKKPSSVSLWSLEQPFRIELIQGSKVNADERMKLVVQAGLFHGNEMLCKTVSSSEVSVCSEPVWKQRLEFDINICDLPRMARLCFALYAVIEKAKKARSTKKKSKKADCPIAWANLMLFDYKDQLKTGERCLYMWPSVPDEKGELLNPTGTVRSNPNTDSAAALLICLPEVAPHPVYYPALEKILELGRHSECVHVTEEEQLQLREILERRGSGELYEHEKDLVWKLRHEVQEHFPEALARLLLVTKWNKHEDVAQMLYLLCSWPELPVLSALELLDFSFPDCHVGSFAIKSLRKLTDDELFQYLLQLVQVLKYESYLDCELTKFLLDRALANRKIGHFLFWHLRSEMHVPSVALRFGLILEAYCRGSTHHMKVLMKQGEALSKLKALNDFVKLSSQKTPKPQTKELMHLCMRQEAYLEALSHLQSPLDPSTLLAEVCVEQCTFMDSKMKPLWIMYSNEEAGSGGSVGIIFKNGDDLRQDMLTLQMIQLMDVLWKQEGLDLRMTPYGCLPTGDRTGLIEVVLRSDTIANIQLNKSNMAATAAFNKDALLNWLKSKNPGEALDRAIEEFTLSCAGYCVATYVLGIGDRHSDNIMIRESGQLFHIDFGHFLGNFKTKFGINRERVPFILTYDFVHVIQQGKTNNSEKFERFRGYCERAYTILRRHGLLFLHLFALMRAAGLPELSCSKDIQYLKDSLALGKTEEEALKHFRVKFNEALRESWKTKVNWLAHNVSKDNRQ
The experiment in a line: Inhibition of human recombinant PI3Kdelta using PIP2 by Kinase-Glo Plus assay.

The target of data set [5] is T1, Phosphatidylinositol 4,5-bisphosphate 3-kinase catalytic subunit alpha isoform. Kind of data set: Inhibition of PI3Kalpha mutant human BT474 cells assessed as inhibition of Akt phosphorylation at […] after 2 hrs. It counts as cell-based. The note with it: bt-474.
Target sequence in this assay (P42336 whole entry, looked up, canonical isoform): as the sequence (P42336 whole entry, canonical isoform) above
In data set [6] the target is T2, Phosphatidylinositol 4,5-bisphosphate 3-kinase catalytic subunit beta isoform. Kind of data set: Inhibition of PI3Kbeta in PTEN-null human MDA-MB-468 cells assessed as inhibition of Akt phosphorylation after 2 hrs. It counts as cell-based.
Data set [7] is described as follows: Lipophilicity, log D of the compound at pH 7.4 by shake-flask method. It counts as physicochemical. The note with it: buffer.
Data set [8] in a line: Intrinsic clearance in cryopreserved human hepatocytes measured per 10^6 cells. It counts as ADME, cell-based, Hepatocyte. As to conditions: read-out: CLH.
A short description of data set [9]: Apparent permeability from apical to basolateral side of human Caco2 cells. It counts as ADME, cell-based. As to conditions: Caco-2, read-out: permeability. Background: Caco-2 cells form a polarised layer with tight junctions and transporters.

As a reminder, the IC50 is the concentration that gives 50% inhibition. A word on the logD: it is lipophilicity at a set pH, counting ionised and neutral species.

T2 sequence (P42338 whole entry, canonical isoform): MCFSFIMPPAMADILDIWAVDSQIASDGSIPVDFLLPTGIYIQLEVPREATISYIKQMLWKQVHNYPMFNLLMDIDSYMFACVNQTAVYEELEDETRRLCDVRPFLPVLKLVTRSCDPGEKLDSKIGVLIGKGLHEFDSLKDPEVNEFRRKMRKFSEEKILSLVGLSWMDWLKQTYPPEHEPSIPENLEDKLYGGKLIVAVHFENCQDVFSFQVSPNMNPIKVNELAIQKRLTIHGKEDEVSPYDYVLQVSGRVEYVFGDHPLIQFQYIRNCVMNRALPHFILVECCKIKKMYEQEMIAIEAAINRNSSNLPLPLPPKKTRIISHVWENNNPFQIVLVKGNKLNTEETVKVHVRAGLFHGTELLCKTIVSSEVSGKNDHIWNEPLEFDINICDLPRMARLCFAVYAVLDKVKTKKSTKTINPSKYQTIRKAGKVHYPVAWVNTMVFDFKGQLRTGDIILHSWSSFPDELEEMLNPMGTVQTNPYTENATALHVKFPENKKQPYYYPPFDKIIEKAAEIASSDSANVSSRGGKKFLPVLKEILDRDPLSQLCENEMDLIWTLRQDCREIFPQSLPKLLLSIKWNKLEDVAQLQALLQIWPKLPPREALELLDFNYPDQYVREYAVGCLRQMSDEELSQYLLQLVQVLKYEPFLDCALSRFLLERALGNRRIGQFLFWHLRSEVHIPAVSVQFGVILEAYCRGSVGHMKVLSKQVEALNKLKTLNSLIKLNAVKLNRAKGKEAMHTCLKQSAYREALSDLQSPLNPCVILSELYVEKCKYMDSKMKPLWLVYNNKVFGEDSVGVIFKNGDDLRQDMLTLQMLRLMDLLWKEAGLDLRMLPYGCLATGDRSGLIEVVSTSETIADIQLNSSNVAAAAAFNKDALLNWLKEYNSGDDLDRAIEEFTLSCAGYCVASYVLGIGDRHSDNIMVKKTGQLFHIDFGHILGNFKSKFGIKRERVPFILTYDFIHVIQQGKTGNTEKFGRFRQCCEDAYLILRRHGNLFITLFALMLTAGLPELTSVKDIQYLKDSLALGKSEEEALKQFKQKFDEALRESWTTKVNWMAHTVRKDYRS
Sequence of Phosphatidylinositol 4,5-bisphosphate 3-kinase catalytic subunit gamma isoform (P48736 whole entry, canonical isoform): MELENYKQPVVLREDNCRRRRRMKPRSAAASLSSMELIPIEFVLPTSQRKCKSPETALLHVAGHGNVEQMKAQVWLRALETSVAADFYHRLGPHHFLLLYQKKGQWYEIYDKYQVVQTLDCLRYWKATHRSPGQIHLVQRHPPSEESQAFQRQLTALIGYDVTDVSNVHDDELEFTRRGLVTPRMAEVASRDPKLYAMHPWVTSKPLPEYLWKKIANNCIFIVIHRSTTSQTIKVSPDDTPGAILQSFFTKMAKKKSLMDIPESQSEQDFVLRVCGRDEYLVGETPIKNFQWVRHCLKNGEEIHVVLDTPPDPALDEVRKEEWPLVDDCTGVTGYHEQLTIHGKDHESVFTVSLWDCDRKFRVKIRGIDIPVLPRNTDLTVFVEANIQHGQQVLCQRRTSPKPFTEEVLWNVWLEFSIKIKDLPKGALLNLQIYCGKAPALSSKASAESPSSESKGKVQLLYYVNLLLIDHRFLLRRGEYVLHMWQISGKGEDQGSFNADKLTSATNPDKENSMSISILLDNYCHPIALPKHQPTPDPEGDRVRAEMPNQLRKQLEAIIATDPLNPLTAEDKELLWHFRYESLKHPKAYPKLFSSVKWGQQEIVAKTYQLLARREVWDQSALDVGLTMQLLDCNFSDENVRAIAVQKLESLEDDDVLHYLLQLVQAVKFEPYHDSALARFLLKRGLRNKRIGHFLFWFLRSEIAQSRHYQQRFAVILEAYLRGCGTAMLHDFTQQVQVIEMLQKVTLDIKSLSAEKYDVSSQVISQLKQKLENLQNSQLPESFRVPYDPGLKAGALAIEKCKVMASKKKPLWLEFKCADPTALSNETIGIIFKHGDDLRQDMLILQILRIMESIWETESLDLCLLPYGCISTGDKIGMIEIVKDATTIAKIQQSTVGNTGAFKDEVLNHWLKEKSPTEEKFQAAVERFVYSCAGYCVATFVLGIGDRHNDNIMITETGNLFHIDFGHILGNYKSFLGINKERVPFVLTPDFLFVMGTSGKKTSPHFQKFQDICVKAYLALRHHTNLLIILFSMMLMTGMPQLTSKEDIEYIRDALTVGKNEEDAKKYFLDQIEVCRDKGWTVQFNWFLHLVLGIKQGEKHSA

As for `CC(Nc1cc(F)cc(F)c1)c1cc(C(=O)N2CCC(O)CC2)cc2c(=O)cc(N3CCOCC3)oc12` (racemic), the IC50 was 230 nM in [1]; 11 nM in [2]; 830 nM in [3]; 90 nM in data set [4]; 6400 nM in data set [5]; 17 nM in [6]. In [7], this compound yielded a logD of 1.8. Besides, the hepatocyte CLint in data set [8] is under 3 µL/min/1e6 cells. Also, the Papp A→B in data set [9] came out at 1 ×10⁻⁶ cm/s.
On to `CC(Nc1cc(F)cc(F)c1)c1cc(C(=O)N2CCCC2)cc2c(=O)cc(N3CCOCC3)oc12` (racemic), for which the half-inhibitory concentration (IC50) in data set [1] was determined as 98 nM; in data set [2], 9 nM; in data set [3] it was 700 nM; in [4], 50 nM; in [5], 400 nM; in data set [6], 2 nM. In addition, the logD in data set [7] was found to be 2.7. For the same compound, the hepatocyte CLint in [8] was 6 µL/min/1e6 cells. The Papp A→B in [9] was found to be 8.5 ×10⁻⁶ cm/s.
As to `CC(Nc1cc(F)ccc1F)c1cc(C(=O)N(C)C)cc2c(=O)cc(N3CCOCC3)oc12` (racemic), the IC50 in data set [1] was found to be 450 nM; in data set [2] it was 19 nM; in data set [3], 6000 nM; in [4], 150 nM; in data set [5], 7000 nM; in data set [6], 60 nM. The compound further yielded a logD in data set [7] of 1.8. Moreover, the hepatocyte CLint in data set [8] is 6 µL/min/1e6 cells. Moreover, in data set [9], the Papp A→B was determined as 12 ×10⁻⁶ cm/s.
For the compound `CC(Nc1cc(F)cc(F)c1)c1cc(C(=O)N(C)CCO)cc2c(=O)cc(N3CCOCC3)oc12` (racemic), the IC50 was 90 nM in data set [1]; 10 nM in data set [2]; 530 nM in data set [3]; 62 nM in data set [4]; 6900 nM in data set [5]; 15 nM in data set [6]. Besides, in data set [7], the logD came to 1.5. Besides, the hepatocyte CLint in data set [8] was under 3 µL/min/1e6 cells. Also, the Papp A→B in data set [9] was 1 ×10⁻⁶ cm/s.
`CC(Nc1cccc(F)c1F)c1cc(C(=O)N(C)C)cc2c(=O)cc(N3CCOCC3)oc12` (racemic): the IC50 in [1] was found to be 370 nM; in data set [2] it was 13 nM; in data set [3] it was 4200 nM; in data set [4] it was 76 nM; in [5] it was 2200 nM; in data set [6], 24 nM. In data set [7], this compound registered a log distribution coefficient (logD) of 1.9. Further, the hepatocyte CLint in data set [8] was under 3 µL/min/1e6 cells. In addition, in data set [9], the Papp A→B is 13 ×10⁻⁶ cm/s.
On to `COCCNC(=O)c1cc(C(C)Nc2cc(F)cc(F)c2)c2oc(N3CCOCC3)cc(=O)c2c1` (racemic), for which the IC50 in [1] came out at 57 nM; in data set [2], 9 nM; in data set [3], 520 nM; in data set [4], 54 nM; in data set [5], 13000 nM; in [6], 31 nM. The compound also showed a logD in data set [7] of 2.1. The hepatocyte CLint in data set [8] is under 3 µL/min/1e6 cells. Moreover, the Papp A→B in [9] turned out to be 0.28 ×10⁻⁶ cm/s.
On to `CNC(=O)c1cc([C@@H](C)Nc2cc(F)cc(F)c2)c2oc(N3CCOCC3)cc(=O)c2c1`, for which the IC50 came to 18 nM in [1]; 6 nM in data set [2]; 250 nM in data set [3]; 14 nM in data set [4]; 960 nM in [5]; 3 nM in data set [6]. The same compound returned a logD in data set [7] of 2.8. In addition, in data set [8], the hepatocyte CLint was under 3 µL/min/1e6 cells. Moreover, the Papp A→B in data set [9] is 3.5 ×10⁻⁶ cm/s.
Regarding `CC(Nc1cc(F)cc(F)c1)c1cc(C(=O)N2CCOCC2)cc2c(=O)cc(N3CCOCC3)oc12` (racemic), the IC50 amounted to 300 nM in data set [1]; 11 nM in data set [2]; 2400 nM in [3]; 115 nM in data set [4]; 6000 nM in data set [5]; 33 nM in data set [6]. The same compound showed a logD in [7] of 1.7. In data set [8], the hepatocyte CLint was under 3 µL/min/1e6 cells. In addition, in [9], the Papp A→B stood at 4.8 ×10⁻⁶ cm/s.
